Common to all, as to assay type: cell-based, human
The subject of assay [1] is glioma cell line U118MG. Description: Example 2: BOHB and Acac added alone or in combination to Medium A-C (CellTiter-Glo). The note with it: for number of cells compared to 8 mM LiCl control: 8 mM Acac. As for the experimental part: (§1) Stock solutions of DL-β-Hydroxybutyric acid sodium salt (H6501, Sigma Aldrich) and Lithium Acetoacetate (A8509, Sigma Aldrich) were prepared in water, sterile filtered, aliquoted and stored at −20° C. Lithium Chloride (L7026, Sigma Aldrich) was used as a control for the addition of Lithium in the Li-Acac.
(§2) CellTiter-Glo Luminescent cell viability assay (Promega) was used as a readout of cell numbers according to the manufacturers' instructions. In experiments shown in FIGS. 7-8, double plates were seeded and treated. One set of plates was used for collection of medium for lactate measurement (see below) and the CellTiterGlo-assay. The other set of plates was frozen at −80° C. at the end of the experiment. The frozen plates were intended for the CyQuant cell proliferation assay (Thermo Fisher) that measures the amount of DNA per well. Analysis of the amounts of cells by both CellTiterGlo and CyQuant assays would ensure that effects of the culture conditions on viability or growth rate would not be concealed by simultaneous changes in ATP-levels per cell.
(§3) Next, it was decided to also include Acac in the study and analyze the viability of cells cultured in the presence of BOHB and Acac alone or in combination in Medium A-C. The experiment was performed at 21% and 5% O2. The experiments were made with glioma cell lines A172 and U118MG.
(§4) Being a chiral molecule, BOHB exists as two enantiomers, D- and L-BOHB. D-BOHB is normally produced and metabolized in humans. The BOHB-salt used in this study contains a mixture of 50:50 of D- and L-BOHB. In order to ensure a high presence of the active D-form, the total concentration of BOHB added was increased to 16 mM, giving a level of 8 mM D-BOHB. To keep the total concentration of active ketones constant, 8 mM Acac was used, and for the combination of both ketones, the levels were adjusted to 4 mM Acac and 8 mM BOHB (containing 4 mM D-BOHB).
(§5) The Acac available for in vitro use is in the form of a lithium salt. Since lithium itself can affect the viability of cancer cells [Cohen-Harazi et al., Anticancer Res 2020; 40:3831-3837], 8 mM LiCl was used as a control for the 8 mM Acac data point and 4 mM LiCl was used as a control for the 4 mM Acac/8 mM BOHB data.
(§6) At the end of the experiment, the culture media from each well was collected and frozen to enable later determination of lactate levels as a measurement of the metabolic state. In addition, double experiments were performed, where one set of plates were frozen for later quantification of cell numbers using the CyQuant proliferation assay, and the amounts of cells in the other set were analyzed by CellTiterGlo viability assay.

Assay [2] relates to glioma cell line A172. The description is as above. The note with it: for growth, repetition experiments 2-6: BOHB or Acac added separately, FIG. 9, inconsistent results; for number of cells compared to 8 mM LiCl control: 8 mM Acac. The method, then:
as §1, §2, §3, §4, §5, §6

The test system of assay [3] is renal carcinoma cell line RCC4. In words: Example 2: BOHB and Acac added alone or in combination to Medium B-C (CellTiter-Glo). The conditions noted are these: nutrient restricted Medium C. The method, then: as §1, §2
Being a chiral molecule, BOHB exists as two enantiomers, D- and L-BOHB. D-BOHB is normally produced and metabolized in humans. The BOHB-salt used in this study contains a mixture of 50:50 of D- and L-BOHB. […]
(In general: In ATP-based viability assays light output follows the ATP content of the culture.)

The subject of assay [4] is A172 (glioblastoma). Description: Study 2: CellTiter-Glo viability, DMEM without sodium pyruvate. The note with it: BOHB 0/4/12 mM, 3 d. As for the experimental part:
(§7) Cell lines established from human colon carcinoma (HCT15, NCI-H508 and COLO205), renal cell carcinoma (769-P, 786-O and RCC4) and glioblastoma (LN-18, A-172 and U-118 MG) were selected for the analysis. All cell lines were obtained from American Type Culture Collection (ATCC, LGC standards, UK) except for RCC4 and HCT15 that was purchased from Sigma-Aldrich (Merck, Germany). In addition, primary human renal cell carcinoma (RCC) cells isolated from patient nephrectomies were included in the study. […]
(§8) Optimal seeding density was determined for each cell line in 96 well plates according to the “Protocol for optimizing cell seeding densities to ensure Log-phase growth”. […] Cover the plate. • Incubate the plate overnight at 37° C., 5% CO2. • Add 50 μL of fresh media to the plate wells to achieve a final volume of 200 µL and incubate for 72 h at 37° C., 5% CO2. • Measure viability using Cell Titer Glo assay according to manufacturer's protocol. • Plot log cell number against luminescence intensity to identify the concentration of cells at which log growth is achieved.
(§9) CellTiter-Glo Luminescent cell viability assay (Promega) was used as a readout of viability.
(§10) For each cell line, optimal number of cells as determined above were seeded into 96-well plates on day 0. […]

The subject of assay [5] is RCC4 (renal cell carcinoma). The assay is described as above. The note with it: BOHB 0/4/12 mM, 3 d. As for the experimental part:
as §7, §8, §9, §10

Where [6] appears, read: Medium A, 16 mM BOHB alone, both normoxia and hypoxia, 3 days.
Where [7] appears, read: Medium C, 16 mM BOHB, both 21 and 5% O2.
Setting [8] is: Medium A, both normoxia and hypoxia.

Regarding `CC(O)CC(=O)[O-].[Na+]` (racemic) [BOHB, DL-β-Hydroxybutyric acid sodium salt], the growth inhibitory effect result in assay [1] (setting [6]) and in assay [2] (setting [6]) was “no growth inhibitory effect” each time. The “number of cells, % compared to C-medium without BOHB” value in assay [1] (setting [7]) and in assay [2] (setting [7]) was “around 30%” in each case. For the same molecule, the “number of cells, % of the amount in Medium B without BOHB” value in assay [2] (Medium B, hypoxic) is “approximately 70%”. Besides, the “growth, repetition experiments 2-6” value in assay [2] (Medium C) is “trend of reduced growth”. Further, the “increased sensitivity to high levels of BOHB or a combination of BOHB and Acac” value in assay [3] is on record as “not found”. In addition, the “proliferation of cells with increase in the concentration of BOHB” value in assay [4] and in assay [5] was “suppresses the proliferation of cells” throughout.
`CC(=O)CC(=O)[O-].[Li+]` [Acac, Lithium Acetoacetate]: the “number of cells compared to 8 mM LiCl control” value is reported as “did not reduce the number of cells further” in assay [1] (setting [8]); “reduced the number of cells significantly” in assay [1] (Medium B, only at 21% O2); “did not reduce the number of cells further” in assay [2] (setting [8]); “reduced the number of cells significantly” in assay [2] (Medium B, only at 21% O2). Further, the “amounts of cells compared to 8 mM LiCl control” value is “did not significantly reduce the amounts of cells” in assay [1] (Medium C, 8 mM Acac alone) and “did not significantly reduce the amounts of cells” in assay [2] (Medium C, 8 mM Acac alone). The “growth, repetition experiments 2-6” value in assay [2] (Medium C) was “trend of reduced growth”.

The values are drawn from patent US20250009691A1, “DIALYSIS FLUID COMPRISING KETONE BODIES FOR THE TREATMENT OF CANCER” (GAMBRO LUNDIA AB, priority 2021, published 2025).
